Measured values reported in patent publication US5968920A, “Compounds having a benzisoselen-azoline and -azine structure, method for preparing same and therapeutic uses thereof” (Oxis Isle of Man, Limited, priority 1994, dated 1999).

Assays:
[1] = system: endothelial cells; assay: Endothelial changes induced by PMN and TNF-α (von Willebrandt factor release); assay type: cell-based, human; conditions: BXT compounds 10 μM, pentoxifylline 50 μM; TNF-α 1 ng/ml; 3.5 h
Procedure: (§1) Human endothelial cells were cultivated under the same conditions as those described for Example 18.
(§2) When the cells were near confluence, they were incubated for one hour in the presence or absence of the following compounds: BXT-51072, BXT-51077 or pentoxifylline. Compounds BXT-51072 and BXT-51077, each at 10 μM, and the pentoxifylline, at 50 μM, were incorporated in culture medium containing 2% of foetal calf serum, all other conditions being the same. […] Myeloperoxidase (MPO), an enzyme specifically contained in PMNs, was then measured in the cell lysates obtained to evaluate adhesion of the PMNs on the endothelial cells. The von Willebrandt factor (vWf) liberated in the culture medium by the endothelial cells was measured after three and a half hours of incubation, as a label of the changes in the cells.
(§3) Incubation of the endothelial cells in the presence of PMN and TNF-α led to a very significant increase in the quantity of MPO and vWf with respect to the respective controls (PMN alone, and endothelial cells alone respectively), meaning the adhesion of activated PMNs to the endothelial cells and changes in the latter.
(§4) They are expressed as the percentage inhibition by referring the MPO and vWf measurements to the respective concentrations of MPO and vWf determined when the endothelial cells were incubated with TNF-α and PMNs.

[2] = system: P-selectin; assay: Endothelial expression of P-selectin induced by TNF-α (ELISA); assay type: cell-based; conditions: Homo sapiens, Endothelial cell; compound 10 μM; TNF-α 1 ng/ml; 3 to 4 hours; read-out: inhibition of TNF-α induced increase in expression of P-selectin
Procedure: Human endothelial cells were cultivated under the same conditions as those described for Example 18. When the cells were near confluence, they were incubated for one hour in the presence or absence of BXT-51072 at 10 μM in culture medium containing 2% of foetal calf serum, all other conditions being the same. The cells were then washed three times with a PBS buffer. The cells which had not been pretreated by a compound were incubated in the presence or absence (control) of TNF-α, at 1 ng/ml, in the same culture medium. The pretreated cells were incubated under the same conditions, but the medium also contained BXT-51072 at 10 μM. After 3 to 4 hours of incubation, the cells were washed with a PBS buffer and fixed with 2% formaldehyde in a PBS buffer.

[3] = system: von Willebrandt factor (vWf); assay: Protection of endothelial cells against interleukin 1 (von Willebrandt factor release); assay type: cell-based; conditions: Homo sapiens, Endothelial cell; compound 10 μM; IL-1α 50 U/ml; 4 h; compound present or not during IL-1 incubation; read-out: inhibition of increase in vWf liberation induced by IL-1
Procedure: as §1
When the cells were near confluence, they were incubated for one hour in the presence or absence of the following compounds: BXT-51072, BXT-51077, each of these compounds being at 10 μM in culture medium containing 2% of foetal calf serum , all other conditions being the same. The cells were then washed three times with a PBS buffer. The cells which had not been pretreated by a compound were incubated in the presence or absence (control) of interleukin 1α (IL-1α), at 50 U/ml, in the same culture medium. […] After four hours of incubation, the von Willebrandt factor (vWf) in the culture medium was measured.

[4] = Glutathione peroxidase activity, hydrogen peroxide; assay type: biochemical; conditions: compound 20 μM, pH = 7.3, 37° C., [GSH] = 2 mM
Procedure: (§5) To 1.5 ml of HEPES buffer, 50 mM, pH=7.3, containing 0.2 mM of DTPA, 0.144 mM of NADPH, 2.2 mM of reduced glutathione and 1.1 U/ml of glutathione disulfide reductase, pre-equilibrated for 2 minutes at 37° C., 100 μl of an ethanolic mother solution of the compound to be tested or 100 μl of absolute ethanol (blank) was added. Each compound was tested at a final concentration of 20 μM.
(§6) Subsequently, 50 μl of the following was added:
or hydrogen peroxide (H2 O2), 1.6 mM in ultrapure water;
(§7) or the hydroperoxide of linoleic acid (18:2-OOH) prepared using soya lipoxygenase (see M. O. Funk et al., Lipids, (1976), 11, pp 113-117), 3.3 mM in a water/methanol mixture, 85/15 (V/V). The glutathione peroxidase activity was measured at 37° C. by measuring the reduction in absorbance at 340 nm over 5 minutes. The initial enzymatic rate or activity was proportional to the slope of the plot of absorbance against time.
(§8) They are expressed in nmoles of hydroperoxide reduced per minute.

[5] = system: endothelial cells; assay: Adhesion of PMN to endothelial cells induced by TNF-α (myeloperoxidase); assay type: cell-based, human; conditions: compound 10 μM vs pentoxifylline 50 μM; TNF-α 1 ng/ml
Procedure: as §1, §2, §3, §4

[6] = system: endothelial cells; assay: Viability of endothelial cells subjected to linoleic acid hydroperoxide (MTT); assay type: cell-based, human; conditions: compound 4 μM, 1 h; 18:2-OOH 50 μM, 2 h; MTT after about twenty hours
Procedure: Human endothelial cells were cultivated at 37° C. in multi-hole plates or Petri dishes in an atmosphere of saturated humidity constituted by a gaseous mixture of 95% air and 5% of CO2. The culture medium was constituted by a M 199 medium, pH=7.4, containing 20% of foetal calf serum, 2 mM of L-glutamine, 100 U/ml of penicillin, 100 μg/ml of streptomycin and 1% by volume of a medium supplement containing heparin and a cell growth factor.
When the cells were near confluence, they were incubated for one hour in the presence or absence of one of the following compounds: BXT-51056, BXT-51072, BXT-51077, or ebelsen. Each of these compounds was incorporated at 4 μM into culture medium containing 2% of foetal calf serum, all other conditions being the same.
After washing the cells three successive times with a PBS buffer, they were incubated in the presence or absence (control) of linoleic acid hydroperoxide (18:2-OOH), 50 μM, in the culture medium defined above. […] After about twenty hours, the viability of the cells was determined by measurement using the bromide of 3-(4,5-dimethylthiazol-2-yl)-2,5-diphenyl-2H-tetrazolium (MTT).
The results are shown in FIG. 1, expressed as the survival percentage with respect to the control and where the reference is shown by the black rectangle.

[7] = Glutathione peroxidase activity, t-BuOOH as hydroperoxide; assay type: biochemical; conditions: compound 20 μM, pH = 7.3, 37° C., [GSH] = 2 mM
Procedure: as §5, §6
tertiobutyl hydroperoxide (t-BuOOH), 6.6 mM in ultrapure water;
as §7, §8

CC1(C)CN[Se]c2ccccc21 [BXT-51072, 4,4-dimethyl-benzisoselenazine]
protection of endothelial cells against the deleterious effects of activated PMNs (vWf) [1]: protect endothelial cells against the deleterious effects of activated PMNs | inhibition at 10 µM [2]: > 90% | inhibition at 10 µM [3]: > 70% | Glutathione peroxidase activity, H2 O2 [4]: 42.0 nmoles of hydroperoxide reduced/min | inhibition of the adhesion of PMN induced by TNF-α (MPO) [5]: inhibit the adhesion of PMN induced by TNF-α, much more effectively than pentoxifylline | protection of the cells from death induced by 18:2-OOH [6]: significantly protected the cells from death | Glutathione peroxidase activity, t--BuOOH [7]: 27.4 nmoles of hydroperoxide reduced/min
